One experiment deals with COS Cell. In words: COS Cell IC50 (Cell-Based Assay). Conditions: COS cells. On the procedure: (§1) FPT IC50 (inhibition of farnesyl protein transferase, in vitro enzyme assay) and COS Cell IC50 (Cell-Based Assay) were determined following the assay procedures described in WO 95/10516, published Apr. 20, 1995. GGPT IC50 (inhibition of geranylgeranyl protein transferase, in vitro enzyme assay), Cell Mat Assay, and anti-tumor activity (in vivo anti-tumor studies) could be determined by the assay procedures described in WO 95/10516. The disclosure of WO 95/10516 is incorporated herein by reference thereto.

The target of experiment [1] is T1, farnesyl protein transferase (Homo sapiens, UniProt P49354+P49356). As to the kind of experiment: FPT inhibition, in vitro enzyme assay (H-ras). The format is biochemical. As for the experimental part:
as §1

In experiment [2] the target is T1, farnesyl protein transferase. As to the kind of experiment: FPT inhibition, in vitro enzyme assay (K-ras). The format is biochemical. On the procedure:
as §1

In a further experiment the test system is Human tumor cells. As to the kind of experiment: Soft Agar Assay (anchorage-independent growth of human tumor cells). The experiment is classed as cell-based. The settings on record: 10-16 days at 37° C., 5% CO2, MTT stain. On the procedure: Soft Agar Assay: Anchorage-independent growth is a characteristic of tumorigenic cell lines. Human tumor cells are suspended in growth medium containing 0.3% agarose and an indicated concentration of a farnesyl transferase inhibitor. The solution is overlayed onto growth medium solidified with 0.6% agarose containing the same concentration of farnesyl transferase inhibitor as the top layer. After the top layer is solidified, plates are incubated for 10-16 days at 37° C. under 5% CO2 to allow colony outgrowth. […] Colonies can be counted and the IC50 's can be determined.

Where “and” joins values, the source holds several entries; their conditions need not be identical. Identical values can stand only once.

Here are results for seven compounds from US5945429A, “Compounds useful for inhibition of farnesyl protein transferase” (Schering Corporation, priority 1997, dated 1999).

T1 sequence (P49356 whole entry, one chain of several): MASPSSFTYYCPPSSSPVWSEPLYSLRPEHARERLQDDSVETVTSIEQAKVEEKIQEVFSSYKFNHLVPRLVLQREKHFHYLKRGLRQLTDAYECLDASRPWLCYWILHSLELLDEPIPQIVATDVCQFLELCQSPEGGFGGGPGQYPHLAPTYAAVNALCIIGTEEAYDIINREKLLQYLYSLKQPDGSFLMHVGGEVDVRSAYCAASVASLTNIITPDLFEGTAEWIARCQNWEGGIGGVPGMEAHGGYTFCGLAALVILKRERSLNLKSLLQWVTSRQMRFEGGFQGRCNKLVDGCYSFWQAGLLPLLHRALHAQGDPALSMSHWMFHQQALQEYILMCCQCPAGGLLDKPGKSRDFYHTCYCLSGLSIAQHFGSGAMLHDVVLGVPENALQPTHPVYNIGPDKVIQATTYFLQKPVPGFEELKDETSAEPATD

Broadly, the IC50 is the concentration that inhibits the measured activity by half. Low readings indicate higher potency, high ones lower potency. As for `Cn1cnc(S(=O)(=O)N2CCC(CC(=O)N3CCC([C@H]4c5ncc(Br)cc5CCc5cc(Cl)cc(Br)c54)CC3)CC2)c1` [Example 14], half-maximal inhibition in the experiment on COS Cell (IC50) required 0.4 µM.
Regarding `CC(C)S(=O)(=O)N1CCC(CC(=O)N2CCC([C@H]3c4ncc(Br)cc4CCc4cc(Cl)cc(Br)c43)CC2)CC1` [Example 8], the results for the IC50 in experiment [1] and in experiment [2] were 0.0058 µM and 0.0229 µM, respectively.
Turning to `O=C(CC1CCN(S(=O)(=O)c2cccs2)CC1)N1CCC([C@H]2c3ncc(Br)cc3CCc3cc(Cl)cc(Br)c32)CC1` [Example 13], the IC50 in the experiment with COS Cell was 0.05 µM; with Human tumor cells, over 0.25 µM.
On to `CCCS(=O)(=O)N1CCC(CC(=O)N2CCC([C@H]3c4ncc(Br)cc4CCc4cc(Cl)cc(Br)c43)CC2)CC1` [Example 7], for which the IC50 in experiment [1] came out at 0.005 µM; in experiment [2], 0.0142 µM.
On to `O=C(CC1CCN(S(=O)(=O)Cc2ccccc2)CC1)N1CCC([C@H]2c3ncc(Br)cc3CCc3cc(Cl)cc(Br)c32)CC1` [Example 9], for which, in experiment [1], the IC50 is 0.0175 µM and 0.008 µM.
With `CC1(C)[C@@H]2CC[C@@]1(CS(=O)(=O)N1CCC(CC(=O)N3CCC([C@H]4c5ncc(Br)cc5CCc5cc(Cl)cc(Br)c54)CC3)CC1)C(=O)C2` [Example 10], the values for the IC50 in experiment [1] and in experiment [2] were 0.0341 µM and 0.0525 µM, respectively.
For the compound `CCS(=O)(=O)N1CCC(CC(=O)N2CCC([C@H]3c4ncc(Br)cc4CCc4cc(Cl)cc(Br)c43)CC2)CC1` [Example 6], the IC50 worked out at 0.0037 µM in experiment [1], 0.0164 µM in experiment [2], 0.012 µM with COS Cell and 0.1 µM in the experiment with Human tumor cells.
